Structures can show the parent of a compound that is named as a salt. Where two headings read alike, the source gives them in different places.
Tests used:
Assay in all cases: AK assay 384-well format, Prestwick library screening
E. cloacae = assay type: cell-based, Enterobacter cloacae; conditions: 50 μM final drug concentration; for fold induction at 50 µM: Enterobacter cloacae, 3 h
[1] = test system: S. aureus strain USA300-0114; assay type: cell-based, Staphylococcus aureus; conditions: 50 μM final drug concentration; for fold induction at 50 µM: Staphylococcus aureus, USA300, 3 h
E. coli = assay type: cell-based, Escherichia coli; conditions: 50 μM final drug concentration; for fold induction at 50 µM: Escherichia coli, 3 h
E. faecium = assay type: cell-based, Enterococcus faecium; conditions: 50 μM final drug concentration; for fold induction at 50 µM: Enterococcus faecium, 3 h
[2] = test system: A. baumannii strain 98-37-09; assay type: cell-based, Acinetobacter baumannii; conditions: 50 μM final drug concentration; for fold induction at 50 µM: Acinetobacter baumannii, 983709, 3 h
P. aeruginosa = assay type: cell-based, Pseudomonas aeruginosa; conditions: 50 μM final drug concentration; for fold induction at 50 µM: Pseudomonas aeruginosa, 3 h
K. pneumoniae = assay type: cell-based, Klebsiella pneumoniae; conditions: 50 μM final drug concentration; for fold induction at 50 µM: Klebsiella pneumoniae, 3 h
[3] = planktonic E. cloacae, cutoff for positive-scoring molecules 3-fold increase, read-out: AK-based Prestwick Library Screening Results, E. cloacae (increase in extracellular AK activity)
[4] = planktonic S. aureus, cutoff for positive-scoring molecules 3-fold increase, read-out: AK-based Prestwick Library Screening Results, S. aureus (increase in extracellular AK activity)
[5] = planktonic E. coli, cutoff for positive-scoring molecules 3-fold increase, read-out: AK-based Prestwick Library Screening Results, E. coli (increase in extracellular AK activity)
[6] = planktonic E. faecium, cutoff for positive-scoring molecules 3-fold increase, read-out: AK-based Prestwick Library Screening Results, E. faecium (increase in extracellular AK activity)
[7] = planktonic A. baumannii, cutoff for positive-scoring molecules 3-fold increase, read-out: AK-based Prestwick Library Screening Results, A. baumannii (increase in extracellular AK activity)
[8] = planktonic P. aeruginosa, cutoff for positive-scoring molecules 3-fold increase, read-out: AK-based Prestwick Library Screening Results, P. aeruginosa (increase in extracellular AK activity)
[9] = planktonic K. pneumoniae, cutoff for positive-scoring molecules 3-fold increase, read-out: AK-based Prestwick Library Screening Results, K. pneumoniae (increase in extracellular AK activity)
[10] = cutoff for positive-scoring molecules 3-fold increase
[11] = planktonic E. cloacae, 384-well, cutoff for positive-scoring molecules 3-fold increase, read-out: AK-based Prestwick Library Screening Results: E. cloacae (increase in extracellular AK activity)
[12] = planktonic S. aureus, 384-well, cutoff for positive-scoring molecules 3-fold increase, read-out: AK-based Prestwick Library Screening Results: S. aureus (increase in extracellular AK activity)
[13] = planktonic E. coli, 384-well, cutoff for positive-scoring molecules 3-fold increase, read-out: AK-based Prestwick Library Screening Results: E. coli (increase in extracellular AK activity)
[14] = planktonic E. faecium, 384-well, cutoff for positive-scoring molecules 3-fold increase, read-out: AK-based Prestwick Library Screening Results: E. faecium (increase in extracellular AK activity)
[15] = planktonic A. baumannii, 384-well, cutoff for positive-scoring molecules 3-fold increase, read-out: AK-based Prestwick Library Screening Results: A. baumannii (increase in extracellular AK activity)
[16] = planktonic P. aeruginosa, 384-well, cutoff for positive-scoring molecules 3-fold increase, read-out: AK-based Prestwick Library Screening Results: P. aeruginosa (increase in extracellular AK activity)
[17] = planktonic K. pneumoniae, 384-well, cutoff for positive-scoring molecules 3-fold increase, read-out: AK-based Prestwick Library Screening Results: K. pneumoniae (increase in extracellular AK activity)

Compound: CC(=O)Oc1cc(C(F)(F)F)ccc1C(=O)O [Triflusal]
- fold induction at 50 µM (E. cloacae; planktonic, […], read-out: AK-based Prestwick Library Screening Results, E. cloacae (fold increase in extracellular AK activity)): 1.3
- fold induction at 50 µM ([1]; planktonic, […], read-out: AK-based Prestwick Library Screening Results, S. aureus (fold increase in extracellular AK activity)): 1.4
- fold induction at 50 µM (E. coli; planktonic, […], read-out: AK-based Prestwick Library Screening Results, E. coli (fold increase in extracellular AK activity)): 1.2
- fold induction at 50 µM (E. faecium; planktonic, […], read-out: AK-based Prestwick Library Screening Results, E. faecium (fold increase in extracellular AK activity)): 1
- fold induction at 50 µM ([2]; planktonic, […], read-out: AK-based Prestwick Library Screening Results, A. baumannii (fold increase in extracellular AK activity)): 1
- fold induction at 50 µM (P. aeruginosa; planktonic, […], read-out: AK-based Prestwick Library Screening Results, P. aeruginosa (fold increase in extracellular AK activity)): 1.2
- fold induction at 50 µM (K. pneumoniae; planktonic, […], read-out: AK-based Prestwick Library Screening Results, K. pneumoniae (fold increase in extracellular AK activity)): 0.9

Compound: C[n+]1cccc(C(=O)[O-])c1 [Trigonelline]
- fold induction at 50 µM (E. cloacae; [3]): 1.2
- fold induction at 50 µM [1, 4]: 0.8
- fold induction at 50 µM (E. coli; [5]): 0.9
- fold induction at 50 µM (E. faecium; [6]): 0.9
- fold induction at 50 µM [2, 7]: 0.9
- fold induction at 50 µM (P. aeruginosa; [8]): 0.8
- fold induction at 50 µM (K. pneumoniae; [9]): 0.7

Compound: Cl.OC(CCN1CCCCC1)(c1ccccc1)C1CCCCC1 (stereo not drawn) [Trihexyphenidyl-D,L Hydrochloride]
- AK-based Prestwick Library Screening Results, E. cloacae (fold increase in extracellular AK activity) (E. cloacae; [10]): 1.5
- AK-based Prestwick Library Screening Results, S. aureus (fold increase in extracellular AK activity) [1, 10]: 1.4
- AK-based Prestwick Library Screening Results, E. coli (fold increase in extracellular AK activity) (E. coli; [10]): 1.2
- AK-based Prestwick Library Screening Results, E. faecium (fold increase in extracellular AK activity) (E. faecium; [10]): 1.1
- AK-based Prestwick Library Screening Results, A. baumannii (fold increase in extracellular AK activity) [2, 10]: 1.4
- AK-based Prestwick Library Screening Results, P. aeruginosa (fold increase in extracellular AK activity) (P. aeruginosa; [10]): 1.3
- AK-based Prestwick Library Screening Results, K. pneumoniae (fold increase in extracellular AK activity) (K. pneumoniae; [10]): 1.1

Compound: COc1ccc(CN2CCNCC2)c(OC)c1OC [Trimetazidine dihydrochloride]
- fold induction at 50 µM (E. cloacae; planktonic, cutoff for positive 3-fold increase, read-out: AK-based Prestwick Library Screening Results, E. cloacae (fold increase in extracellular AK activity)): 1.7
- fold induction at 50 µM ([1]; planktonic, cutoff for positive 3-fold increase, read-out: AK-based Prestwick Library Screening Results, S. aureus (fold increase in extracellular AK activity)): 1.2
- fold induction at 50 µM (E. coli; planktonic, cutoff for positive 3-fold increase, read-out: AK-based Prestwick Library Screening Results, E. coli (fold increase in extracellular AK activity)): 1.4
- fold induction at 50 µM (E. faecium; planktonic, cutoff for positive 3-fold increase, read-out: AK-based Prestwick Library Screening Results, E. faecium (fold increase in extracellular AK activity)): 1
- fold induction at 50 µM ([2]; planktonic, cutoff for positive 3-fold increase, read-out: AK-based Prestwick Library Screening Results, A. baumannii (fold increase in extracellular AK activity)): 1.2
- fold induction at 50 µM (P. aeruginosa; planktonic, cutoff for positive 3-fold increase, read-out: AK-based Prestwick Library Screening Results, P. aeruginosa (fold increase in extracellular AK activity)): 1.1
- fold induction at 50 µM (K. pneumoniae; planktonic, cutoff for positive 3-fold increase, read-out: AK-based Prestwick Library Screening Results, K. pneumoniae (fold increase in extracellular AK activity)): 1.1

Compound: CN1C(=O)OC(C)(C)C1=O [Trimethadione]
- fold induction at 50 µM (E. cloacae; [3]): 1.4
- fold induction at 50 µM [1, 4]: 0.7
- fold induction at 50 µM (E. coli; [5]): 1
- fold induction at 50 µM (E. faecium; [6]): 0.9
- fold induction at 50 µM [2, 7]: 0.9
- fold induction at 50 µM (P. aeruginosa; [8]): 0.8
- fold induction at 50 µM (K. pneumoniae; [9]): 0.7

Compound: COc1cc(C(=O)NCc2ccc(OCCN(C)C)cc2)cc(OC)c1OC [Trimethobenzamide hydrochloride]
- fold induction at 50 µM (E. cloacae; [11]): 1.3
- fold induction at 50 µM [1, 12]: 1.2
- fold induction at 50 µM (E. coli; [13]): 1.2
- fold induction at 50 µM (E. faecium; [14]): 1.1
- fold induction at 50 µM [2, 15]: 1.2
- fold induction at 50 µM (P. aeruginosa; [16]): 1
- fold induction at 50 µM (K. pneumoniae; [17]): 1.1

Compound: COc1cc(Cc2cnc(N)nc2N)cc(OC)c1OC [Trimethoprim]
- fold induction at 50 µM (E. cloacae; [11]): 7.2
- fold induction at 50 µM [1, 12]: 1
- fold induction at 50 µM (E. coli; [13]): 1.2
- fold induction at 50 µM (E. faecium; [14]): 1.1
- fold induction at 50 µM [2, 15]: 3.1
- fold induction at 50 µM (P. aeruginosa; [16]): 1.1
- fold induction at 50 µM (K. pneumoniae; [17]): 0.8

Compound: COc1cc2c(c(OC)c1OC)-c1ccc(O)c(=O)cc1C(N)CC2 (stereo not drawn) [Trimethylcolchicinic acid]
- fold induction at 50 µM (E. cloacae; planktonic E. cloacae, […], read-out: AK-based Prestwick Library Screening Results, E. cloacae (increase in extracellular AK activity)): 0.8
- fold induction at 50 µM ([1]; planktonic S. aureus, […], read-out: AK-based Prestwick Library Screening Results, S. aureus (increase in extracellular AK activity)): 0.6
- fold induction at 50 µM (E. coli; planktonic E. coli, […], read-out: AK-based Prestwick Library Screening Results, E. coli (increase in extracellular AK activity)): 0.8
- fold induction at 50 µM (E. faecium; planktonic E. faecium, […], read-out: AK-based Prestwick Library Screening Results, E. faecium (increase in extracellular AK activity)): 1.2
- fold induction at 50 µM ([2]; planktonic A. baumannii, […], read-out: AK-based Prestwick Library Screening Results, A. baumannii (increase in extracellular AK activity)): 1
- fold induction at 50 µM (P. aeruginosa; planktonic P. aeruginosa, […], read-out: AK-based Prestwick Library Screening Results, P. aeruginosa (increase in extracellular AK activity)): 0.7
- fold induction at 50 µM (K. pneumoniae; planktonic K. pneumoniae, […], read-out: AK-based Prestwick Library Screening Results, K. pneumoniae (increase in extracellular AK activity)): 0.7

Compound: Cc1cc2cc3c(C)cc(=O)oc3c(C)c2o1 [Trioxsalen]
- fold induction at 50 µM (E. cloacae; cutoff for positive-scoring molecules 3-fold increase, read-out: AK-based Prestwick Library Screening Results, E. cloacae (fold increase in extracellular AK activity)): 1.3
- fold induction at 50 µM ([1]; cutoff for positive-scoring molecules 3-fold increase, read-out: AK-based Prestwick Library Screening Results, S. aureus (fold increase in extracellular AK activity)): 0.9
- fold induction at 50 µM (E. coli; cutoff for positive-scoring molecules 3-fold increase, read-out: AK-based Prestwick Library Screening Results, E. coli (fold increase in extracellular AK activity)): 1.2
- fold induction at 50 µM (E. faecium; cutoff for positive-scoring molecules 3-fold increase, read-out: AK-based Prestwick Library Screening Results, E. faecium (fold increase in extracellular AK activity)): 0.9
- fold induction at 50 µM ([2]; cutoff for positive-scoring molecules 3-fold increase, read-out: AK-based Prestwick Library Screening Results, A. baumannii (fold increase in extracellular AK activity)): 1.2
- fold induction at 50 µM (P. aeruginosa; cutoff for positive-scoring molecules 3-fold increase, read-out: AK-based Prestwick Library Screening Results, P. aeruginosa (fold increase in extracellular AK activity)): 1
- fold induction at 50 µM (K. pneumoniae; cutoff for positive-scoring molecules 3-fold increase, read-out: AK-based Prestwick Library Screening Results, K. pneumoniae (fold increase in extracellular AK activity)): 1
